{"source": "patent EP1923473B1", "about": "“Bis-diglycolamides (BISDGA) as new extractants for lanthanides [Ln(III)] and actinides [An(III)] from aqueous high-level wastes” (Universidad Autónoma de Madrid, priority 2006, dated 2008)", "format_in_all_cases": "physicochemical", "key": {"[1]": {"assay": "Extraction capability from aqueous 3 mol/L nitric acid", "conditions": "aqueous [HNO3] 3 mol/L spiked with 152Eu(III) and 241Am(III)", "protocol": "The organic solutions of the extractant compounds to be tested were prepared dissolving an amount of the extractant compound in the solvent considered in each case to reach the ligand concentration of 0.1 mol/L. The solvents considered were 1-octanol, n-heptane, n-dodecane, the industrial solvent \"TPH\" (hydrogenated tetrapropylene) used in the \"La Hague\" reprocessing plant of the COGEMA company (Compagnie générale des matières nucléaires) and different mixtures \"TPH/1-octanol or n-dodecane/1-octanol\".\nOnce said solution was obtained, its equilibration was carried out. To that end, 800 µL of the organic solution of the compound to be studied were contacted with 800 µL of nitric acid of 3 mol/L concentration and it was stirred vigorously in an oscillating shaker for 5 minutes. The phases were separated by centrifugation at 5000 rpm. 800 µL of the said organic phase were again contacted with 800 µL of nitric acid of 3 mol/L concentration for another 5 minutes of vigorous shaking. The phases were separated by centrifugation, the organic phase being considered to be equilibrated.\n(§1) 600 µL of the organic phase of the compound to be studied, previously equilibrated, were contacted with 600 µL of aqueous phase consisting of a 3 mol/L nitric acid solution spiked with 600 Bq of ^152Eu and 600 Bq of ^241Am. It was stirred vigorously by means of an oscillating shaker for 30 minutes and the phases were separated by centrifugation at 5000 rpm. 400 µL were taken from each of the phases for determining the concentration of the radionuclides ^152Eu and ^241Am. This determination was carried out by means of the high energy gamma spectrometry technique with a high-purity Ge detector (Canberra Inc.), using the 122 keV line for the determination of ^152Eu concentration and the 59.5 keV line for the determination of ^241Am concentration. The distribution coefficient was calculated by relating the concentration of each of the radionuclides in the organic phase and in the aqueous phase, according to the expression: DM = ([M]org)/([M]aq) [formula]\n(§2) The distribution coefficients and the selectivity factor of each of them were determined as indicated in sections A) to C)."}, "[2]": {"assay": "Eu/Am selectivity factor in extraction from 3 mol/L nitric acid", "conditions": "aqueous [HNO3] 3 mol/L", "protocol": "as §1\nThe Eu/Am selectivity factor was calculated by relating the corresponding distribution coefficients of Eu with those of Am in the same experimental conditions: SFEu/Am = DEu /DAm [formula]\nas §2"}, "[3]": {"assay": "Third phase formation in extraction from simulated HLLW", "conditions": "HLLW without oxalic acid and without HEDTA; TODGA 0.2 mol/L", "protocol": "[…] Extraction experiments were carried out with said simulated HLLW in a pure form and also adding oxalic acid and HEDTA to it. These complexing agents have shown to be effective in the DIAMEX process for the complexing of Mo, Zr (H2C2O4) and Pd (HEDTA).\nThe actinides Am (III), Cm (III) and Cf (III) as well as trivalent lanthanides were extracted with high distribution coefficients from HLLW with a 3.2 mol/L nitric acid concentration. […] As expected, Zr and Pd are not co-extracted when complexing agents are added to HLLW."}, "[4]": {"assay": "Radiolytic stability, extraction capability after irradiation", "conditions": "after 1000 kGy; irradiated dissolved in n-dodecane/1-octanol (95:5)%vol, equilibrated with 3 mol/L nitric acid", "protocol": "The tests of stability against irradiation were carried out in the NAYADE facility at CIEMAT site, with external ^60Co sources with an approximate activity of 5000 Ci, with a homogeneous irradiation flux. The dose rate applied in all the experiments was 4 kGy/h and integrated doses of 250 kGy, 500 kGy, 750 kGy and 1000 kGy were considered. The irradiation device consists of a metal cylinder which is introduced in a rack wherein the ^60CO sources are placed radially, such that the irradiation is homogeneous. The irradiation process is carried out submersing the device in a pool of water with a depth of 4 meters.\nIrradiation tests of the solid compound (in the absence of solvent) and of the compound dissolved in the \"n-dodecane/1-octanol (95:5)%vol\" mixture, equilibrated with 3 mol/L nitric acid, were carried out. The organic solutions were prepared and equilibrated as detailed in the previous sections A) and B).\nOnce each programmed integrated dose was reached, the extraction capability of the organic samples was evaluated as detailed in section C).\nThe irradiation of compound 4 in solid form (in the absence of solvent) and dissolved at a 0.1 mol/L concentration in the \"n-dodecane/1-octanol 1 (95:5)%vol\" mixture, equilibrated with 3 mol/L nitric acid, was carried out. The applied dose rate was 4 kGy/h and the considered integrated doses were 250 kGy, 500 kGy, 750 kGy and 1000 kGy. After each integrated dose, the extraction capability of Am(III) and Eu(III) was evaluated as described in section C.\nThe considered integrated doses in this experiment were 500 kGy and 1000 kGy at a dose rate of 4 kGy/h."}, "[5]": {"conditions": "0.1 mol/L in TPH/1-octanol (50:50)%vol"}}, "data": [{"molecule": "2-Dibutylcarbamoylmethoxy-N-[3-[(2-dibutylcarbamoyl-methoxy-acetylamino)methyl]benzyl]acetamide [Compound 3]", "values": [{"measurement": "DAm", "setting": "[1]; [5]", "result": 99}, {"measurement": "DEu", "setting": "[1]; [5]", "result": 183}, {"measurement": "SFEu/Am", "setting": "[2]; [5]", "result": 1.9}]}, {"molecule": "2-Dibutylcarbamoylmethoxy-N-[6-(2-dibutylcarbamoyl-methoxyacetylamino)hexyl]acetamide [Compound 14]", "values": [{"measurement": "DAm", "setting": "[1]; [5]", "result": 119}, {"measurement": "DEu", "setting": "[1]; [5]", "result": 215}, {"measurement": "SFEu/Am", "setting": "[2]; [5]", "result": 1.8}]}, {"molecule": "2-Dioctylcarbamoylmethoxy-N-[6-(2-dioctylcarbamoyl-methoxyacetylamino)hexyl]acetamide [Compound 15]", "values": [{"measurement": "DAm", "setting": "[1]; 0.1 mol/L in 1-octanol", "result": 25}, {"measurement": "DEu", "setting": "[1]; 0.1 mol/L in 1-octanol", "result": 98}, {"measurement": "SFEu/Am", "setting": "[2]; 0.1 mol/L in 1-octanol", "result": 3.9}]}, {"molecule": "CCCCCCCCN(C)C(=O)COCC(=O)NCc1cccc(CNC(=O)COCC(=O)N(C)CCCCCCCC)c1", "note": "[Compound 5, 2-[(Methyloctylcarbamoyl)methoxy]-N-[3-[(2-[(methyl-octyl-carbamoyl)methoxy]acetylamino]methyl]benzyl]-acetamide]", "values": [{"measurement": "DAm", "setting": "[1]; [5]", "result": 83}, {"measurement": "DEu", "setting": "[1]; [5]", "result": 309}, {"measurement": "SFEu/Am", "setting": "[2]; [5]", "result": 3.7}]}, {"molecule": "CC(C)CCN(CCC(C)C)C(=O)COCC(=O)NCc1cccc(CNC(=O)COCC(=O)N(CCC(C)C)CCC(C)C)c1", "note": "[Compound 6, 2-[[Bis(3-methylbutyl)carbamoyl]methoxy]-N-[3-[(2-[[bis-(3-methylbutyl)carbamoyl]methoxy]acetylamino)methyl]-benzyl]-acetamide]", "values": [{"measurement": "DAm", "setting": "[1]; [5]", "result": 82}, {"measurement": "DEu", "setting": "[1]; [5]", "result": 251}, {"measurement": "SFEu/Am", "setting": "[2]; [5]", "result": 3.1}]}, {"molecule": "CCCCCCCCN(CCCCCCCC)C(=O)COCC(=O)NCc1ccc(CNC(=O)COCC(=O)N(CCCCCCCC)CCCCCCCC)cc1", "note": "[Compound 8]", "values": [{"measurement": "DAm", "setting": "[1]; [5]", "result": 67}, {"measurement": "DEu", "setting": "[1]; [5]", "result": 276}, {"measurement": "SFEu/Am", "setting": "[2]; [5]", "result": 4.1}]}, {"molecule": "CCCCCC(C)Oc1cc(CNC(=O)COCC(=O)N(CCCC)CCCC)cc(CNC(=O)COCC(=O)N(CCCC)CCCC)c1", "note": "(stereo not drawn) [Compound 10, 2-Di-butylcarbamoylmethoxy-N-[3-[(2-dibutyl-carbamoyl-methoxyacetylamino)methyl]-5-(1-methylhexyloxy)benzyl]-acetamide]", "values": [{"measurement": "DAm", "setting": "[1]; [5]", "result": 41}, {"measurement": "DEu", "setting": "[1]; [5]", "result": 276}, {"measurement": "SFEu/Am", "setting": "[2]; [5]", "result": 6.7}]}, {"molecule": "CCCCCCCCCCCCOc1cc(CNC(=O)COCC(=O)N(CCCC)CCCC)cc(CNC(=O)COCC(=O)N(CCCC)CCCC)c1", "note": "[Compound 11, 2-Di-butylcarbamoylmethoxy-N-[3-[(2-dibutyl-carbamoyl-methoxyacetylamino)methyl]-5-dodecyloxybenzyl]acetamide]", "values": [{"measurement": "DAm", "setting": "[1]; [5]", "result": 88}, {"measurement": "DEu", "setting": "[1]; [5]", "result": 335}, {"measurement": "SFEu/Am", "setting": "[2]; [5]", "result": 3.8}]}, {"molecule": "CCCCN(CCCC)C(=O)COCC(=O)NCCCNC(=O)c1cc(C(C)(C)C)cc2c1Oc1c(C(=O)NCCCNC(=O)COCC(=O)N(CCCC)CCCC)cc(C(C)(C)C)cc1C2(C)C", "note": "[Compound 19, 2,7-di-tert-butyl-9,9-dimethyl-9H-xanthen-4,5-dicarboxylic acid bis-[[3-(2-dibutylcarbamoylmethoxy-acetylamino)propyl]amide]]", "values": [{"measurement": "DAm", "setting": "[1]; [5]", "result": 65}, {"measurement": "DEu", "setting": "[1]; [5]", "result": 318}, {"measurement": "SFEu/Am", "setting": "[2]; [5]", "result": 4.9}]}, {"molecule": "CCCCCCCCN(CCCCCCCC)C(=O)COCC(=O)N(C)C", "note": "[DMDODGA, N,N-dimethyl-N',N'-dioctyl-oxapentane-diamide, reference compound]", "values": [{"measurement": "DAm", "setting": "[1]; [5]", "result": 477}, {"measurement": "DEu", "setting": "[1]; [5]", "result": 789}, {"measurement": "SFEu/Am", "setting": "[2]; [5]", "result": 1.7}]}, {"molecule": "CCCCN(CCCC)C(=O)COCC(=O)N(CCCC)CCCC", "note": "[TBDGA, N,N,N',N'-tetrabutyl-3-oxapentane-diamide, reference compound]", "values": [{"measurement": "DAm", "setting": "[1]; [5]", "result": 476}, {"measurement": "DEu", "setting": "[1]; [5]", "result": 680}, {"measurement": "SFEu/Am", "setting": "[2]; [5]", "result": 1.4}]}, {"molecule": "CCCCCCCCN(CCCCCCCC)C(=O)COCC(=O)N(CCCCCCCC)CCCCCCCC", "note": "[TODGA, N,N,N',N'-tetraoctyl diglycolamide, reference compound]", "values": [{"measurement": "third phase", "setting": "[3]", "result": "a third phase was observed"}, {"measurement": "DAm", "setting": "[4]", "result": 121}, {"measurement": "DEu", "setting": "[4]", "result": 458}]}]}
